The assay deals with human GPIIb/IIIa receptor (Homo sapiens (Human), UniProt P05106+P08514). Nature of the assay: Affinity assay: displacement of tritiated reference compound from immobilized purified GPIIb/IIIa. Format: binding. As to the method: Affinity assay: In the first step human GPIIb/IIIa purified from human platelets was immobilized on a 96-well solid plate. After 48 hours the plates were washed and the unspecific binding sites were blocked with Roti®-Block. 2. In the next step, the plates were simultaneously incubated with a tritium labeled known GPIIb/IIIa binder (^3H) mixed with increasing concentrations of the novel small molecule compounds (inhibitor, ^19F). The higher the affinity of the inhibitor, the lower the bound fraction of the tritiated known GPIIb/IIIa binder (^3H) was. The fraction of tritiated compound (^3H), which is not displaced by inhibitor, was measured in a microplate scintillation counter.
Purified human glycoprotein IIb/IIIa (20 mM Tris-HCl, 0.1 M NaCl, 0.1% Triton X-100, 1 mM CaCl2, 0.05% NaN3, 50% Glycerol, pH 7.4) was purchased from Enzyme Research Laboratories Inc. (South Bend, Ind.). The GPIIb/IIIa receptor was diluted in phosphate-buffered saline (Dulbecco's Phosphate Buffered Saline (D-PBS(+)) with calcium and magnesium, GIBCO®, Invitrogen) with 0.01% bovine serum albumin (albumin from bovine serum—lyophilized powder, ≧96%, Sigma).
The GPIIb/IIIa receptor was immobilized 48 hours at least (100 μL per well, 48 to maximum 96 hours) on a 96-well solid plate (Immuno Plate MaxiSorp™, Nunc, Roskilde, Denmark) at 277 K to 280 K and at a concentration of 0.1 μg per well to 1 μg per well. As negative control one row of the plate (n=8) was incubated just with 2% bovine serum albumin (200 μper well, albumin from bovine serum—lyophilized powder, […], Sigma, diluted in D-PBS(+)). After washing three times with the wash buffer (230 μL per well, Dulbecco's Phosphate Buffered Saline (D-PBS (−)) contains no calcium or magnesium, GIBCO®, Invitrogen) residual exposed plastic and unspecific binding sites were blocked by incubating the plate with a special blocking solution (200 μL per well, Roti®-Block, Carl Roth GmbH Co KG, Karlsruhe) containing 2% bovine serum albumin (Albumin from bovine serum—lyophilized powder, ≧96%, Sigma) 1 hour at room temperature.
After washing three times with the wash buffer 50 μL of tritiated reference compound (60 nM, ^3H-labeled compound) and 50 μL of novel compound (inhibitor, ^19F) were simultaneously added to each well and incubated for 1 hour at room temperature. Several concentrations of each novel inhibitor (0.1, 1, 2, 5, 10, 20 50, 100, 200, 500, 1000, 2000, 5000, 10000 and 20000 nM) were investigated. At each concentration of inhibitor a fourfold determination was performed.
The maximum value of tritiated reference compound was determined without addition of inhibitor (n=8). To exclude unspecific binding of ^3H-reference compound wells without glycoprotein receptors were used as negative controls (n=12, identically treated just without GP IIb/IIIa receptors).
After one hour the plate was washed three times with phosphate-buffered saline (200 μL per well, Dulbecco's Phosphate Buffered Saline (D-PBS(+)), GIBCO®, Invitrogen). Following 140 μL of liquid scintillation cocktail (MicroScint™ 40 aqueous, Perkin Elmer) was added to each well. After 15 min at room temperature the plates were measured at the microplate scintillation counter (TopCount NXT v2.13, Perkin Elmer, Packard Instrument Company).
In the first step human glycoprotein IIb/IIIa, which is purified from human platelets, was immobilized on a 96-well solid plate. After 48 hours at least the plates were washed and the unspecific binding sites were blocked with Roti®-Block. In the next step, the plates were simultaneously incubated with a tritium labeled reference compound and the novel small molecule compound (inhibitor). The higher the affinity of the inhibitor, the smaller is the bound fraction of reference compound. The fraction of tritiated reference compound, which is not displaced by inhibitor, was measured at a microplate scintillation counter.

Where [1] appears, read: 19F compounds vs 60 nM 3H-labeled reference compound, 1 hour at room temperature, read-out: IC50 human.
Where [2] appears, read: values repeated beside the 18F-compound, read-out: IC50 human (corresponding 19F-compound, Table 2).

Each structure is given as a SMILES string. pIC50: −log10 of the molar value. Read-outs that look alike come from different tables or passages of the source.

Sequence of human GPIIb/IIIa receptor (P08514 32-887): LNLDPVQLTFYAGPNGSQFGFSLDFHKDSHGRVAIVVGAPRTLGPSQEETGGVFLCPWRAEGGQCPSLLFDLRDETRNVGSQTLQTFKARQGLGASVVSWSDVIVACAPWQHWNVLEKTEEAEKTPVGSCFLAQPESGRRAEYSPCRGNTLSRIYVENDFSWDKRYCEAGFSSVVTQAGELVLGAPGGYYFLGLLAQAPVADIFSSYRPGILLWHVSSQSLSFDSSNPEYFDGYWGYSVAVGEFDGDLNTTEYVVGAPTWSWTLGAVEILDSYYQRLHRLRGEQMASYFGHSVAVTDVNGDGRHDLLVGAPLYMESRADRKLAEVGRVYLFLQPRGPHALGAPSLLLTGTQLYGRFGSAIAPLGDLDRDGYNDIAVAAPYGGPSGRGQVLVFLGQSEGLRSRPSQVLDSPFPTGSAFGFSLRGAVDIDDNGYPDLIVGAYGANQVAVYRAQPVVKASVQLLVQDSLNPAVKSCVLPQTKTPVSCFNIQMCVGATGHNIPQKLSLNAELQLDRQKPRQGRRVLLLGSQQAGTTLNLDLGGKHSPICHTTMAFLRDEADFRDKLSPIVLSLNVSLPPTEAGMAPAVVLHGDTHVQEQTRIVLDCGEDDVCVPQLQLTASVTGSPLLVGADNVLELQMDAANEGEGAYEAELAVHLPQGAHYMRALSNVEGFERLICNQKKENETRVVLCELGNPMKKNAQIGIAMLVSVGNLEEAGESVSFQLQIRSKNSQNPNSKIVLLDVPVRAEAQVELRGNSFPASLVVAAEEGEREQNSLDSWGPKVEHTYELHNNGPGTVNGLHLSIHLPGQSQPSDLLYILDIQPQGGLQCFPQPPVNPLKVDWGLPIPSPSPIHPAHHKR
Sequence of human GPIIb/IIIa receptor (P08514 891-1039 partner): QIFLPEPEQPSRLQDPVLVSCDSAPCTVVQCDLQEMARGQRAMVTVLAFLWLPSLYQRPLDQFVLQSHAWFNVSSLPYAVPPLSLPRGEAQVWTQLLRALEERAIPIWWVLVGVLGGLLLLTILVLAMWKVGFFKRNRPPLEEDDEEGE
Sequence of human GPIIb/IIIa receptor (P05106 27-788): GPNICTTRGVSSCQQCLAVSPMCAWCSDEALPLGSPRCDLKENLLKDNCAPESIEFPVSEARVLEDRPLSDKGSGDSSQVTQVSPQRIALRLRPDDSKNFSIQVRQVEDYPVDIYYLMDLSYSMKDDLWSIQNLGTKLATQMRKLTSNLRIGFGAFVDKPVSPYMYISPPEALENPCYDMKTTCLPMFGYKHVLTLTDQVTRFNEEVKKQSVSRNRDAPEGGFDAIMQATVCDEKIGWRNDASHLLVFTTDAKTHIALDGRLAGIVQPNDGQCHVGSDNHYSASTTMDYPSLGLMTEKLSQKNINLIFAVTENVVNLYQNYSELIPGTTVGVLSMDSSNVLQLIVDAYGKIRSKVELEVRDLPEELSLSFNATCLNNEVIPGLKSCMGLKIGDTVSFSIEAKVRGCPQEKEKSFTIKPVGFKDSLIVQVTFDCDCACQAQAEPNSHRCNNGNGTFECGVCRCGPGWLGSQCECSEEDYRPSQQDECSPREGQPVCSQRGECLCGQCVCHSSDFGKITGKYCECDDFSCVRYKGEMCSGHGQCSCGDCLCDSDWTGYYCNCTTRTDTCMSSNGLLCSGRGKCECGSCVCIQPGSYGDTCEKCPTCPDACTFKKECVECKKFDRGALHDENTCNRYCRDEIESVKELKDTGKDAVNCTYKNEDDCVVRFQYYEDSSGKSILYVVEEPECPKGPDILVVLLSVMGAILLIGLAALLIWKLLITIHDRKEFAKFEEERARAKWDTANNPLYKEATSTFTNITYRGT

As for `N#Cc1ccc(COc2cncc([C@H](CC(=O)O)NC(=O)[C@@H]3CCCN(C(=O)CCC4CCNCC4)C3)c2)cc1F` [Example 13, (3S)-3-{5-[(4-Cyano-3-fluorobenzyl)oxy]pyridin-3-yl}-3-[({(3R)-1-[3-(piperidin-4-yl)propanoyl]piperidin-3-yl}carbonyl)amino]propanoic acid], the pIC50 under setting [1] is 8.15.
In the case of `N#Cc1cc(-c2cncc([C@H](CC(=O)O)NC(=O)[C@@H]3CCCN(C(=O)CCC4CCNCC4)C3)c2)ccc1F` [Example 9, (3S)-3-[5-(3-Cyano-4-fluorophenyl)pyridin-3-yl]-3-[({(3R)-1-[3-(piperidin-4-yl)propanoyl]piperidin-3-yl}carbonyl)amino]propanoic acid], the pIC50 by setting is: under setting [1], 7.68; under setting [2], 7.68.
With `N#Cc1ccc(-c2cncc([C@H](CC(=O)O)NC(=O)[C@@H]3CCCN(C(=O)CCC4CCNCC4)C3)c2)cc1F` [Example 10, (3S)-3-[5-(4-Cyano-3-fluorophenyl)pyridin-3-yl]-3-[({(3R)-1-[3-(piperidin-4-yl)propanoyl]piperidin-3-yl}carbonyl)amino]propanoic acid], under setting [1], the pIC50 was 7.82.
For the compound `O=C(O)C[C@H](NC(=O)[C@@H]1CCCN(C(=O)CCC2CCNCC2)C1)c1cncc(OCCOCCOCCF)c1` [Example 5, (3S)-3-(5-{2-[2-(2-Fluoroethoxy)ethoxy]ethoxy}pyridine-3-yl)-3-[({(3R)-1-[3-(piperidin-4-yl)propanoyl]piperidin-3-yl}carbonyl)amino]propanoic acid], the pIC50 under setting [1] was 7.80.
Still for that read-out and setting: the result for `O=C(O)C[C@H](NC(=O)[C@@H]1CCCN(C(=O)CCC2CCNCC2)C1)c1cncc(C#Cc2cccc(OCCF)c2)c1` [Example 16, (3S)-3-(5-{[3-(2-Fluoroethoxy)phenyl]ethynyl}pyridin-3-yl)-3-[({(3R)-1-[3-(piperidin-4-yl)propanoyl]piperidin-3-yl}carbonyl)amino]propanoic acid] reads 8.22.
Consider `O=C(O)C[C@H](NC(=O)[C@@H]1CCCN(C(=O)CCC2CCNCC2)C1)c1cncc(-c2cccc(OCCF)c2)c1` [Example 6, (3S)-3-{5-[3-(2-Fluoroethoxy)phenyl]pyridin-3-yl}-3-[({(3R)-1-[3-(piperidin-4-yl)propanoyl]piperidin-3-yl}carbonyl)amino]propanoic acid], for which the pIC50 under setting [1] is 7.80.
Take `O=C(O)C[C@H](NC(=O)[C@@H]1CCCN(C(=O)CCC2CCNCC2)C1)c1ccc(OCCF)cc1` [Example 2, (3S)-3-[4-(2-Fluoroethoxy)phenyl]-3-[({(3R)-1-[3-(piperidin-4-yl)propanoyl]piperidin-3-yl}carbonyl)amino]propanoic acid]: the pIC50 was 7.54 under setting [1] and 7.54 under setting [2].
For `O=C(O)C[C@H](NC(=O)[C@@H]1CCCN(C(=O)CCC2CCNCC2)C1)c1cncc(-c2ccccc2OCCF)c1` [Example 8, (3S)-3-{5-[2-(2-Fluoroethoxy)phenyl]pyridin-3-yl}-3-[({(3R)-1-[3-(piperidin-4-yl)propanoyl]piperidin-3-yl}carbonyl)amino]propanoic acid], the pIC50 under setting [1] is 7.85.
As to `O=C(O)C[C@H](NC(=O)[C@@H]1CCCN(C(=O)CCC2CCNCC2)C1)c1cncc(CCc2ccc(OCCF)cc2)c1` [Example 18, (3S)-3-(5-{2-[4-(2-Fluoroethoxy)phenyl]ethyl}pyridin-3-yl)-3-[({(3R)-1-[3-(piperidin-4-yl)propanoyl]piperidin-3-yl}carbonyl)amino]propanoic acid], the pIC50 under setting [1] is 8.52 and the pIC50 under setting [2] was 8.52.
Turning to `N#Cc1ccc([C@H](CC(=O)O)NC(=O)[C@@H]2CCCN(C(=O)CCC3CCNCC3)C2)cc1F` [Example 14, (3S)-3-(4-Cyano-3-fluorophenyl)-3-[({(3R)-1-[3-(piperidin-4-yl)propanoyl]piperidin-3-yl}carbonyl)amino]propanoic acid], under setting [1], the pIC50 was 7.82.
On the same count and under the same terms, the same measure for `O=C(O)C[C@H](NC(=O)[C@@H]1CCCN(C(=O)CCC2CCNCC2)C1)c1cncc(-c2ccc(F)c([N+](=O)[O-])c2)c1` [Example 11, (3S)-3-[5-(4-Fluoro-3-nitrophenyl)pyridin-3-yl]-3-[({(3R)-1-[3-(piperidin-4-yl)propanoyl]piperidin-3-yl}carbonyl)amino]propanoic acid]: 7.85; for `O=C(O)C[C@H](NC(=O)[C@@H]1CCCN(C(=O)CCC2CCNCC2)C1)c1cccc(OCCOCCOCCF)c1` [Example 4, (3S)-3-(3-{2-[2-(2-Fluoroethoxy)ethoxy]ethoxy}phenyl)-3-[({(3R)-1-[3-(piperidin-4-yl)propanoyl]piperidin-3-yl}carbonyl)amino]propanoic acid]: 7.08; for `O=C(O)C[C@H](NC(=O)[C@@H]1CCCN(C(=O)CCC2CCNCC2)C1)c1cncc(C=Cc2cccc(OCCF)c2)c1` (mixture of isomers) [Example 20, (E/Z)(3S)-3-(5-{2-[3-(2-Fluoroethoxy)phenyl]ethenyl}pyridin-3-yl)-3-[({(3R)-1-[3-(piperidin-4-yl)propanoyl]piperidin-3-yl}carbonyl)amino]propanoic acid]: 8.15.
Consider `N#Cc1cc(COc2cncc([C@@H](CC(=O)O)NC(=O)[C@H]3CCCN(C(=O)CCC4CCNCC4)C3)c2)ccc1F` (stereo in doubt) [Example 12, (3R)-3-{5-[(3-Cyano-4-fluorobenzyl)oxy]pyridin-3-yl}-3-[({(3S)-1-[3-(piperidin-4-yl)propanoyl]piperidin-3-yl}carbonyl)amino]propanoic acid], for which, under setting [1], the pIC50 is 8.10.
Same read-out and setting: the same measure for `O=C(O)C[C@H](NC(=O)[C@@H]1CCCN(C(=O)CCC2CCNCC2)C1)c1cc(F)cc(-c2ccc(OCCF)cc2)c1` [Example 17, (3S)-3-[5-Fluoro-4′-(2-fluoroethoxy)biphenyl-3-yl]-3-[({(3R)-1-[3-(piperidin-4-yl)propanoyl]piperidin-3-yl}carbonyl)amino]propanoic acid]: 7.46.
`O=C(O)C[C@H](NC(=O)[C@@H]1CCCN(C(=O)CCC2CCNCC2)C1)c1cncc(CCc2cccc(OCCF)c2)c1` [Example 19, (3S)-3-(5-{2-[3-(2-Fluoroethoxy)phenyl]ethyl}pyridin-3-yl)-3-[({(3R)-1-[3-(piperidin-4-yl)propanoyl]piperidin-3-yl}carbonyl)amino]propanoic acid]: the pIC50 is 8.52 under setting [1] and 8.52 under setting [2].
`O=C(O)C[C@H](NC(=O)[C@@H]1CCCN(C(=O)CCC2CCNCC2)C1)c1cncc(C#Cc2ccc(OCCF)cc2)c1` [Example 15, (3S)-3-(5-{[4-(2-Fluoroethoxy)phenyl]ethynyl}pyridin-3-yl)-3-[({(3R)-1-[3-(piperidin-4-yl)propanoyl]piperidin-3-yl}carbonyl)amino]propanoic acid]: the pIC50 under setting [1] was 8.30.

As usually defined, the pIC50 is −log10 of the IC50, conventionally taken in molar units.

Values taken from patent US9345793B2, “Compounds for binding to the platelet specific glycoprotein IIB/IIIA and their use for imaging of thrombi” (PIRAMAL IMAGING SA, priority 2011, dated 2016).
